Assay results taken from article PMC10821286 (Marine Drugs, 2023).
≈ marks a conversion by molar mass, not a printed value. Read-outs that look alike come from different tables or passages of the source. Where a SMILES comes first, the peptide text is derived from it. Bridges are numbered along the chain shown (N, C = ends).

How the values were obtained:
S. aureus ATCC 25923 = assay: microbe, parasite or virus in culture; format: cell-based, Staphylococcus aureus; conditions: 1 × 10^5 CFU/mL, 37 °C, 12–18 h, triplicate
Experimental: (§1) Each experiment was performed in triplicate.

S. aureus ATCC 43300 = assay: microbe, parasite or virus in culture; format: cell-based, Staphylococcus aureus; conditions: 1 × 10^5 CFU/mL, 37 °C, 12–18 h, triplicate
Experimental: as §1

S. aureus E48 = assay: microbe, parasite or virus in culture; format: cell-based, Staphylococcus aureus; conditions: microbroth dilution, 1 × 10^5 CFU/mL, 37 °C, 12–18 h, triplicate
Experimental: as §1

[1] = tested on: S. pseudintermedius A2101; assay: organism not typed; format: cell-based; conditions: microbroth dilution, 1 × 10^5 CFU/mL, 37 °C, 12–18 h, triplicate
Experimental: as §1

S. hyicus NCTC 10350 = assay: microbe, parasite or virus in culture; format: cell-based; conditions: 1 × 10^5 CFU/mL, 37 °C, 12–18 h, triplicate
Experimental: as §1

S. agalactiae ATCC 13813 = conditions: microbroth dilution, 1 × 10^5 CFU/mL, 37 °C, 12–18 h, triplicate
Experimental: (§2) The strains to be tested were cultured overnight at 37 °C and then transferred to fresh medium until the logarithmic phase of growth was reached. […] The plate was then incubated at 37 °C for 12–18 h. The minimum concentration of no bacterial growth was recorded as the MIC value. Each experiment was performed in triplicate.

[2] = tested on: S. epidermidis ATCC 35984; conditions: microbroth dilution, 1 × 10^5 CFU/mL, 37 °C, 12–18 h, triplicate
Experimental: as §2

[3] = tested on: S. epidermidis ATCC 12228; assay: microbe, parasite or virus in culture; format: cell-based, Staphylococcus epidermidis; conditions: 1 × 10^5 CFU/mL, 37 °C, 12–18 h, triplicate
Experimental: as §1

S. epidermidis G-81 [4] = assay: microbe, parasite or virus in culture; format: cell-based, Staphylococcus epidermidis; conditions: 1 × 10^5 CFU/mL, 37 °C, 12–18 h, triplicate
Experimental: as §1

[5] = 100 °C, one hour in PBS; read-out MIC against S. epidermidis
Experimental: (§3) Each experiment was performed in triplicate, and data were analyzed by the GraphPad Prism (version 8, USA, the software download from https://www.graphpad-prism.cn/, accessed on 7 June 2023).

pepsin = pepsin 3000 U/mg, pH 2.0, ratio 10:1, 37 °C, 4 h; read-out MIC against S. epidermidis, triplicate
Experimental: as §3

trypsin = trypsin 250 U/mg, pH 8.0, ratio 10:1, 37 °C, 4 h; read-out MIC against S. epidermidis, triplicate
Experimental: as §3

Ion stability = format: physicochemical; conditions: Zn2+, Mg2+, Ca2+, NH4+, K+, Na+; 37 °C, 4 h (method); read-out MIC against S. epidermidis
Excerpt: The results were presented as means ± standard deviation (SD).

S. epidermidis G-81 [6] = assay: Murine subcutaneous abscess model of S. epidermidis infection; format: in vivo, BALB/c mice; conditions: mice, day three post-infection
Experimental: The sterile saline was used for rapid washing twice.
The six-week-old BALB/c mice were divided randomly into five groups of nine animals: a normal saline control group, an infection group, three drug treatment groups (including AOD treatment in two groups and lincomycin treatment in one group). The hair removal solution was applied to the abdomen of each mouse in every group. One day later, each group, except for the control group, was subcutaneously injected with 0.1 mL of S. epidermidis G-81 at a concentration of 1 × 10^10 CFU/mL. […] In contrast, the infected group received an injection of 10 μL normal saline. The treatment duration was three days, and we continuously observed the weight and volume changes in the abscesses for 15 days. […] […] The results were presented as means ± standard deviation (SD).

mouse red blood cells = conditions: 128 μg/mL; mouse erythrocytes, 37 °C, 1 h
Experimental: Erythrocytes from mice of SPF grade were centrifuged at 2000 rpm for 5 min, followed by washes with saline solution three times. […] The mixture was then incubated at 37 °C for 1 h. Subsequently, it was centrifuged at 5000 rpm for 5 min and the supernatant was collected for measurement of the absorbance at OD540 nm. The 0.9% NaCl and 0.1% Triton X-100 were used as blank (A0) and positive (A100) controls, respectively [32]. The percentage of peptide hemolysis is calculated as follows: Hemolysis (%) = [(A − A0)/(A100 − A0)] × 100. Each experiment was performed in triplicate, and data were analyzed by the GraphPad Prism (version 8, USA, the software download from https://www.graphpad-prism.cn/, accessed on 7 June 2023).

Hacat cells = conditions: 24 h, cck-8
Experimental: Cell survival rate is calculated as follows: Survival rate (%) = (A/Acontrol) × 100.

E. coli ATCC 25922 = assay: MIC, microbroth dilution; format: cell-based; conditions: Escherichia coli, ATCC25922, 1 × 10^5 CFU/mL, 37 °C, 12–18 h, triplicate
S. epidermidis G-81 [7] = assay: Time-killing curves; format: cell-based, Staphylococcus epidermidis; conditions: S. epidermidis G-81, lincomycin 1× and 2× MIC (positive control), 24 h
Experimental: Samples were collected at intervals of 0, 0.5, 1, 2, 4, 6, 8, 10, 12, and 24 h, respectively, and subjected to 10-fold serial dilutions followed by colony counting. PBS and Lincomycin were used as negative and positive controls. […] The results were presented as means ± standard deviation (SD).

Which MIC (S. aureus ATCC 25923; microbroth dilution) does the source give for CC[C@H](C)[C@@H]1NC(=O)[C@H](CO)NC(=O)[C@H](CCCNC(=N)N)NC(=O)[C@@H]2CSSC[C@@H](C(=O)N[C@@H](Cc3ccc(O)cc3)C(=O)N[C@@H](CCCNC(=N)N)C(=O)N[C@@H](CO)C(=O)O)NC(=O)[C@H]([C@@H](C)O)NC(=O)[C@@H]3CSSC[C@H](NC(=O)[C@H](CCC(N)=O)NC(=O)[C@H](Cc4ccc(O)cc4)NC(=O)[C@H](CCCNC(=N)N)NC(=O)[C@H](CC(N)=O)NC(=O)[C@H](Cc4c[nH]c5ccccc45)NC(=O)[C@@H]4CCCN4C(=O)[C@@H](NC(=O)CNC(=O)[C@H](Cc4ccccc4)NC(=O)CN)CSSC[C@H](NC(=O)[C@H](Cc4ccc(O)cc4)NC(=O)CNC(=O)CNC(=O)[C@H](CC(C)C)NC(=O)[C@H](CCCNC(=N)N)NC(=O)CNC1=O)C(=O)N[C@@H](C)C(=O)NCC(=O)N[C@@H](CO)C(=O)N[C@@H](CC(C)C)C(=O)N[C@@H](CCCNC(=N)N)C(=O)N[C@@H](CC(C)C)C(=O)N[C@@H]([C@@H](C)O)C(=O)N3)C(=O)N[C@@H](Cc1c[nH]cn1)C(=O)N[C@@H](CO)C(=O)N[C@@H](Cc1c[nH]cn1)C(=O)N2 [AOD] (H-GFGCPWNRYQCHSHCRSIGRLGGYCAGSLRLTCTCYRS-OH; disulfide 4-25, 11-33, 15-35) here?
The MIC was 16 µg/mL (≈ 3.75 µM).

What about the MIC (S. aureus ATCC 43300; microbroth dilution) of the same compound?
Its MIC is 8 µg/mL (≈ 1.88 µM).

What about the MIC (S. aureus E48) of the same compound?
The MIC was 8 µg/mL (≈ 1.88 µM).

What about the MIC [1] of the same compound?
The MIC was 8 µg/mL (≈ 1.88 µM).

And the MIC (S. hyicus NCTC 10350; microbroth dilution)?
The MIC was 16 µg/mL (≈ 3.75 µM).

What about the MIC (S. agalactiae ATCC 13813) of the same compound?
The MIC was 4 µg/mL (≈ 0.938 µM).

What about the MIC [2] of the same compound?
The MIC was 4 µg/mL (≈ 0.938 µM).

And the MIC ([3]; microbroth dilution)?
Its MIC is 4 µg/mL (≈ 0.938 µM).

What about the MIC (S. epidermidis G-81 [4]; microbroth dilution) of the same compound?
Its MIC is 4 µg/mL (≈ 0.938 µM).

What about the “antibacterial activity remaining after heating” value [5] of the same compound?
The value was 20%.

And the “MIC values after treatment with pepsin” value (pepsin)?
The value was “remained unchanged”.

And the “MIC values after treatment with trypsin” value (trypsin)?
The value was “remained unchanged”.

And the ion stability (Ion stability)?
Its ion stability is “remarkable stability”.

And the heart indices (S. epidermidis G-81 [6])?
Its heart indices is “elevated only in the AOD-treated group”.

And the hemolysis rate (mouse red blood cells)?
Its hemolysis rate is “less than 0.5%”.

What about the cell survival rate (Hacat cells; 128 μg/mL) of the same compound?
The cell survival rate was “over 83%”.

What about the cell survival rate (Hacat cells; 128 mg/mL (so in the source)) of the same compound?
Its cell survival rate is 98%.

With CCC[C@@H]1C[C@@H](C(=O)N[C@@H]([C@H]2O[C@H](SC)[C@H](O)[C@@H](O)[C@H]2O)[C@@H](C)O)N(C)C1 [Lincomycin, reference compound] as the compound, how does the MIC (S. aureus ATCC 25923; Staphylococcus aureus, ATCC25923, microbroth dilution, read-out: MIC) read?
The MIC was 1 µg/mL (≈ 2.46 µM).

And the MIC (S. aureus ATCC 43300; Staphylococcus aureus, ATCC43300, microbroth dilution, read-out: MIC)?
Its MIC is over 64 µg/mL.

And the MIC (S. aureus E48; Staphylococcus aureus, read-out: MIC)?
The MIC was 1 µg/mL (≈ 2.46 µM).

And the MIC ([1]; read-out: MIC)?
Its MIC is 32 µg/mL (≈ 78.7 µM).

What about the MIC (S. hyicus NCTC 10350; Staphylococcus hyicus, NCTC10350, microbroth dilution, read-out: MIC) of the same compound?
Its MIC is 32 µg/mL (≈ 78.7 µM).

And the MIC ([3]; Staphylococcus epidermidis, ATCC12228, microbroth dilution, read-out: MIC)?
The MIC was 4 µg/mL (≈ 9.84 µM).

What about the MIC (S. epidermidis G-81 [4]; Staphylococcus epidermidis, G81, microbroth dilution, read-out: MIC) of the same compound?
The MIC was 4 µg/mL (≈ 9.84 µM).

What about the MIC (E. coli ATCC 25922) of the same compound?
Its MIC is 2 µg/mL (≈ 4.92 µM).

What about the “course of bacterial counts” value (S. epidermidis G-81 [7]) of the same compound?
Its value is “gradual decrease”.
